Experimental data reported in ChEMBL document CHEMBL1201862, “PubChem BioAssay data set” (2004).
Activity calls are given as the source filed them.

How the values were obtained:
[1] = biological target: T1, Calpain-2 catalytic subunit (Sus scrofa, UniProt P43367); assay: m-calpain protease blockers, concentration series – biochemical, fluorogenic peptide substrate, dose response (AID 1420); type: functional
T1 sequence (P43367 whole entry): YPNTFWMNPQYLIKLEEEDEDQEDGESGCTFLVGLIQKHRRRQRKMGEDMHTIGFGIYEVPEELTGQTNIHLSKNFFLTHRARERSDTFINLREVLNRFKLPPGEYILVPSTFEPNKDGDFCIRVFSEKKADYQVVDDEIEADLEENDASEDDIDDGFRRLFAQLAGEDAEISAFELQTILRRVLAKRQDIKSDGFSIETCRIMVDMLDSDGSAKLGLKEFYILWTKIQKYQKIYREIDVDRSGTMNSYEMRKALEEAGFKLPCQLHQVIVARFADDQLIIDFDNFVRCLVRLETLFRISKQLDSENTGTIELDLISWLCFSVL

[2] = biological target: Heat shock protein HSP 90-alpha (Homo sapiens, UniProt P07900); type: functional, organism-based
Fatty acid synthase [3] = biological target: T2, Fatty acid synthase (Homo sapiens, UniProt P49327); assay: inhibition of human FAS-TE enzyme activity – biochemical, endpoint fluorescence intensity, uHTS hits, dose response (AID 624327); type: functional;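 also: fluorescence from hydrolysis of an O-methyl fluorescein acyl ester substrate by the enzyme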
T2 sequence (P49327 whole entry): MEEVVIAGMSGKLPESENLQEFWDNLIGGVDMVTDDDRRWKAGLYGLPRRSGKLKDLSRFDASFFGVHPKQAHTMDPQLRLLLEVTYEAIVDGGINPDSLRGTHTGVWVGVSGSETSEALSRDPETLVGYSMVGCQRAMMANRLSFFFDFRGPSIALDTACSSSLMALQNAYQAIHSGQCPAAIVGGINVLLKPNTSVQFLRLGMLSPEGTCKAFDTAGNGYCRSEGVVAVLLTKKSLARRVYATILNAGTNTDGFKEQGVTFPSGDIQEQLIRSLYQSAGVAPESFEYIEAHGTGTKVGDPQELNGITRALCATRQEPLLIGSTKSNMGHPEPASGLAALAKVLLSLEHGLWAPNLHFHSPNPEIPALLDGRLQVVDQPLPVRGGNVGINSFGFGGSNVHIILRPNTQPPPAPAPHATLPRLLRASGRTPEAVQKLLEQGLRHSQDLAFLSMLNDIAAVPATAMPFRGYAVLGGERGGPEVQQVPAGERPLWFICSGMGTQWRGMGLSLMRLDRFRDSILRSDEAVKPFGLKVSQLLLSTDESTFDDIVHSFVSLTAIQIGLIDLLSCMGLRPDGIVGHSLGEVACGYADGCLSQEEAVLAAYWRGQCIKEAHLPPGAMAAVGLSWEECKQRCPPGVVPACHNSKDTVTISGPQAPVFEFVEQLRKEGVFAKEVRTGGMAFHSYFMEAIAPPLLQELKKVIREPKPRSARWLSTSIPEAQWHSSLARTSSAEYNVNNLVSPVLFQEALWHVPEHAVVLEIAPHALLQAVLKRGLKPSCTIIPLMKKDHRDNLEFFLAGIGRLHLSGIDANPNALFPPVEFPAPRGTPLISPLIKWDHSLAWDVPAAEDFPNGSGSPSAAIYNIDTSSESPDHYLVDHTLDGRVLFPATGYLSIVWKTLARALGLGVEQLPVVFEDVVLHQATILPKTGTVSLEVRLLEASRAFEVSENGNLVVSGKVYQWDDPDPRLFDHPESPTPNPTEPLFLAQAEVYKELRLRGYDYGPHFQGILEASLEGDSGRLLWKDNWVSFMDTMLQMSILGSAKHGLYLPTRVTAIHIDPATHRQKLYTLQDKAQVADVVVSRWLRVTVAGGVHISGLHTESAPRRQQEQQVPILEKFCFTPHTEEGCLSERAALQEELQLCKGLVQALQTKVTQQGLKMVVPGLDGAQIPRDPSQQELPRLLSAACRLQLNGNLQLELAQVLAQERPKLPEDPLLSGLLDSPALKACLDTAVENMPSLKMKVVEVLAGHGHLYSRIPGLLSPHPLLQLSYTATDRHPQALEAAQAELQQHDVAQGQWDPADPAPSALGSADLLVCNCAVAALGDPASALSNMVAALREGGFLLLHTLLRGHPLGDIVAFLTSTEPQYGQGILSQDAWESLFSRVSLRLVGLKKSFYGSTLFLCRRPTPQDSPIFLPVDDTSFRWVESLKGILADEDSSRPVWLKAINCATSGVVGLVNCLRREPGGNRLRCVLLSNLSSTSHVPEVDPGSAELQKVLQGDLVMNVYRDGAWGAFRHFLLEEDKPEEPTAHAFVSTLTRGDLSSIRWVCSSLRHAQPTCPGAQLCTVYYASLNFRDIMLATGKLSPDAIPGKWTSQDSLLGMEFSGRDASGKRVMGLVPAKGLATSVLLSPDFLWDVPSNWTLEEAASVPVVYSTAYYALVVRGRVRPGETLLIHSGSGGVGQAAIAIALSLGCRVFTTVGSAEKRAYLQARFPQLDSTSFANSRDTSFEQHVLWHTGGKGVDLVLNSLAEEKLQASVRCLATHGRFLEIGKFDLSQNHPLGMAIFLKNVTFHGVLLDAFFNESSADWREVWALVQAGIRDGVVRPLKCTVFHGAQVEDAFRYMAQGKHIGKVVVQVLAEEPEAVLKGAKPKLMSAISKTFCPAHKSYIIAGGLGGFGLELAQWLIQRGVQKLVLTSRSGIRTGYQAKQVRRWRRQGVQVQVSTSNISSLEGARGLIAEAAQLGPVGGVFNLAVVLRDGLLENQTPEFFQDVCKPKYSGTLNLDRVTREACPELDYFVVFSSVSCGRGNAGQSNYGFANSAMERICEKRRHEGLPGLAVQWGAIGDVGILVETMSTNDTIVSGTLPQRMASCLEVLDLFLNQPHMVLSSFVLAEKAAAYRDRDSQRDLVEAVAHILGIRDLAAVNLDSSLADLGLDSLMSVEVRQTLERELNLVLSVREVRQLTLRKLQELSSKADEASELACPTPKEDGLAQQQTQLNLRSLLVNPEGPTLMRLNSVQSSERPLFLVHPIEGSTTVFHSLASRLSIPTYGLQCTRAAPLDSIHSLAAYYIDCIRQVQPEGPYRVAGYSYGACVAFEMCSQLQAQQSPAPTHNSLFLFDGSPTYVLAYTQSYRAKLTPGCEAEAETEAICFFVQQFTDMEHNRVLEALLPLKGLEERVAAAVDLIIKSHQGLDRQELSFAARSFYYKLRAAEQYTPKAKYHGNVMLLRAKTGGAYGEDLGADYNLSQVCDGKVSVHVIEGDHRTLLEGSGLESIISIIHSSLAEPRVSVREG

Fatty acid synthase [4] = biological target: T2, Fatty acid synthase; assay: inhibition of human FAS-TE enzyme activity – biochemical, kinetic fluorescence intensity, dose response (AID 624326); type: functional;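 also: rate of fluorescence rise from hydrolysis of a fluorogenic O-methyl fluorescein ester substrate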
[5] = biological target: Glucose-6-phosphate 1-dehydrogenase (Homo sapiens, UniProt P11413); assay: inhibition of Homo sapiens G6PD, dose series – biochemical, fluorescence, selectivity assay for P. falciparum G6PD inhibitor project, dose response (AID 504792); type: functional
Sequence of Glucose-6-phosphate 1-dehydrogenase (P11413 whole entry): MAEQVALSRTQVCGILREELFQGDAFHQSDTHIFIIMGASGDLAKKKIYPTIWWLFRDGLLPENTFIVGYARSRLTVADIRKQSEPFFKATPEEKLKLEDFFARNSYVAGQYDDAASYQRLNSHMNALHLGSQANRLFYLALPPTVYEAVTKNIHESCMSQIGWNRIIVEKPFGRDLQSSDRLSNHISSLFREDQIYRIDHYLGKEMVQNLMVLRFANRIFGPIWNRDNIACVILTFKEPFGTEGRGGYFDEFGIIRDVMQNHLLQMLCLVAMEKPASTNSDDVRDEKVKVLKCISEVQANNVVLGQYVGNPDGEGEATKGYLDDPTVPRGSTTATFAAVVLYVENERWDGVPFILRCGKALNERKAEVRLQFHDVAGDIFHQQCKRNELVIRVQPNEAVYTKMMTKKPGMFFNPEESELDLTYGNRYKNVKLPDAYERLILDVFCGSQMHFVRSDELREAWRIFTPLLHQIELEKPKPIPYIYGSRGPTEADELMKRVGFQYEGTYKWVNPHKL

[6] = biological target: T3, Apoptotic protease-activating factor 1 (Homo sapiens, UniProt O14727); type: functional
T3 sequence (O14727 whole entry): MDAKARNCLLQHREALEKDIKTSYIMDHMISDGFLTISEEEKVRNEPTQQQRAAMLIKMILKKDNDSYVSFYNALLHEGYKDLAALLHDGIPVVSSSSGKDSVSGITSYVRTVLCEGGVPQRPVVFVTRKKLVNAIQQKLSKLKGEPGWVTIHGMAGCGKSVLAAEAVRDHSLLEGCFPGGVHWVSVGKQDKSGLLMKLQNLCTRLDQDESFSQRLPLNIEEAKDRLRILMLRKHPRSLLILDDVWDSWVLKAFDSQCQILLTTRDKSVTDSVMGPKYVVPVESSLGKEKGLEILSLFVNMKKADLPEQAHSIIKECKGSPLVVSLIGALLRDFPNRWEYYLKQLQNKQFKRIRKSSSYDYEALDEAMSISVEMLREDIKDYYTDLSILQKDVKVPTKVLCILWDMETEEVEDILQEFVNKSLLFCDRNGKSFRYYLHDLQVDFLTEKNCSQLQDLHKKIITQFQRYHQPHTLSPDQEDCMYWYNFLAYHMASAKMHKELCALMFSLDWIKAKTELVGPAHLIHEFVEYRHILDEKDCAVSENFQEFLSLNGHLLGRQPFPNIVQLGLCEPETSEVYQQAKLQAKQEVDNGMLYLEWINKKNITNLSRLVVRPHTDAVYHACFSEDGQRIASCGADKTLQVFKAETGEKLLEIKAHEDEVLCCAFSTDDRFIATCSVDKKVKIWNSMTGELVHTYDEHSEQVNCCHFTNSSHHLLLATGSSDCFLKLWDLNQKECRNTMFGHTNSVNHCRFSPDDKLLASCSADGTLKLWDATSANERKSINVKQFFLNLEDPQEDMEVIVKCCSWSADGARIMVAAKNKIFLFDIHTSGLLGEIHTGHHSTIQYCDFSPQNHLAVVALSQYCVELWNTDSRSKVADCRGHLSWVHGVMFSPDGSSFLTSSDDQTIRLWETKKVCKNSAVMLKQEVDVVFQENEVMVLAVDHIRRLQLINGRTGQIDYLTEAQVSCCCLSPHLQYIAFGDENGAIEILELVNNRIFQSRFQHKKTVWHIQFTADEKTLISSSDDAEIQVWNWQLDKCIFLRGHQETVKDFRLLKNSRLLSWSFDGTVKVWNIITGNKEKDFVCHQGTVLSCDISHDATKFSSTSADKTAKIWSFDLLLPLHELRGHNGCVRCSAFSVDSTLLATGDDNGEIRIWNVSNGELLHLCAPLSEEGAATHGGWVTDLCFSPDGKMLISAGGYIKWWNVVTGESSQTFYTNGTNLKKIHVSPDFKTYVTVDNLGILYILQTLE

Estrogen receptor beta = Estrogen receptor beta (Homo sapiens, UniProt Q92731);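 also: recombinant ER-beta bound to coactivator SRC1 peptide in presence of estradiol agonist; inhibitors block coactivator peptide binding and lower the FRET signal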
Sequence of Estrogen receptor beta (Q92731 whole entry): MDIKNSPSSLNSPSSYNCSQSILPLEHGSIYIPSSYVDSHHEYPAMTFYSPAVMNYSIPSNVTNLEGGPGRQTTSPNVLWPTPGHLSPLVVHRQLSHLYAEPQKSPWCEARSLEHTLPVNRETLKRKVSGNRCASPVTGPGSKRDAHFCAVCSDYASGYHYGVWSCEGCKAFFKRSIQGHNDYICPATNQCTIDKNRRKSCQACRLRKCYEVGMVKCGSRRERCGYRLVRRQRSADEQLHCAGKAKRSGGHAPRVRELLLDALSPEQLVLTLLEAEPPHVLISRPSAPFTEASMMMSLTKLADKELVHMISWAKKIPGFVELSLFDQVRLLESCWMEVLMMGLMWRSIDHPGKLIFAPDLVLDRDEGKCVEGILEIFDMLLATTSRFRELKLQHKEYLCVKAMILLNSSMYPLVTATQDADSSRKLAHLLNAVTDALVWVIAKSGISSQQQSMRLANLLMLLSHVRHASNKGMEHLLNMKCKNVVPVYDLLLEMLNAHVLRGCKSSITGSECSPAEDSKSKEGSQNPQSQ

[7] = biological target: T4, Replicative DNA helicase DnaB (Mycobacterium tuberculosis, UniProt P9WMR3); assay: DnaB intein splicing inhibitors, dose response, biochemical, cell-free fluorescence (AID 449749); type: functional
T4 sequence (P9WMR3 whole entry): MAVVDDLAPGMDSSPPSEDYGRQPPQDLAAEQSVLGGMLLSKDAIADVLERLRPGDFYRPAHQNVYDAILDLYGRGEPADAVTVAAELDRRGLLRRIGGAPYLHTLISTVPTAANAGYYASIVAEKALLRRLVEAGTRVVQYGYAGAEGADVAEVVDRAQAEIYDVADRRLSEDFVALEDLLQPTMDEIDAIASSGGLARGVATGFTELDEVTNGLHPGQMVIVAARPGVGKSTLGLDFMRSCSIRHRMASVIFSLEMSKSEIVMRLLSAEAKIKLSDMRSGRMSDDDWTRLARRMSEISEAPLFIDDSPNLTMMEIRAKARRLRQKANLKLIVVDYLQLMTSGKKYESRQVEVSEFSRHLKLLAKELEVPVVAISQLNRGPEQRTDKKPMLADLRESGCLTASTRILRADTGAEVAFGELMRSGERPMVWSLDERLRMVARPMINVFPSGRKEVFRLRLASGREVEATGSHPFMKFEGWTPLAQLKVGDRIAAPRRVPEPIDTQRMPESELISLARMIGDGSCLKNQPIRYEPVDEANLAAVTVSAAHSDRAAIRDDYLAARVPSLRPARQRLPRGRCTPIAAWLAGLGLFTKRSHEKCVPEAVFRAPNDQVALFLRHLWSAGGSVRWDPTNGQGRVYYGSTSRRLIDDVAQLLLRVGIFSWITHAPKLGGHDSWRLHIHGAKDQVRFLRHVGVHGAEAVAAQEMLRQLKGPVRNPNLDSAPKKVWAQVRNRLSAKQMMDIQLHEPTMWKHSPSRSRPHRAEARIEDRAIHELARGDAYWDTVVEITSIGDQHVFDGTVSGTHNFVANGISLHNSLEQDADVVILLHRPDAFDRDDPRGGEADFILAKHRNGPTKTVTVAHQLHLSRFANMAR

Protein RecA = biological target: T5, Protein RecA (Mycobacterium tuberculosis, UniProt P9WHJ3); assay: Fluorescence Cell-Free Homogeneous Dose Retest to Identify Inhibitors of RecA-Intein Splicing Activity. [Related pubchem assays (depositor defined):AID2097, AID2223, AID489010, AID492950]; type: functional
T5 sequence (P9WHJ3 whole entry): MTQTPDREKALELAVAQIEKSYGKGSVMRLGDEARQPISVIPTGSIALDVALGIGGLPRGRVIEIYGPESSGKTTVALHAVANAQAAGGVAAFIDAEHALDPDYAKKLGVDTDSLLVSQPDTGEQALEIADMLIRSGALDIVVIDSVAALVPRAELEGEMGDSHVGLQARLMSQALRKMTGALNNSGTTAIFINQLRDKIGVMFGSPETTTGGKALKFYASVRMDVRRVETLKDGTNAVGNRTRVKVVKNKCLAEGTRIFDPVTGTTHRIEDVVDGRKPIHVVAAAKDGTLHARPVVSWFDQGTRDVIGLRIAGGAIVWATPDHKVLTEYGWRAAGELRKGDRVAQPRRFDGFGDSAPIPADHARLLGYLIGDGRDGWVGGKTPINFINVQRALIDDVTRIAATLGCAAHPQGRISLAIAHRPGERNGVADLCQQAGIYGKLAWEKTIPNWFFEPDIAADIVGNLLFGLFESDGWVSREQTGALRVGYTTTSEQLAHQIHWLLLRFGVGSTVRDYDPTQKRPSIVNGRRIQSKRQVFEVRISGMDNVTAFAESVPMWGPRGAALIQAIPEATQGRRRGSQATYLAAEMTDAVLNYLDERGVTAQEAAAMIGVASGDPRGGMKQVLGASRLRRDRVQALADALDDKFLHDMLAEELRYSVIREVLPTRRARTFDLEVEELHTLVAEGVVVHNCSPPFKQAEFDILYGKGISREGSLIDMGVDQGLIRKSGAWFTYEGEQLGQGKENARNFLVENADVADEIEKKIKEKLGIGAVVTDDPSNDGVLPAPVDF

[8] = biological target: T6, Corticotropin-releasing factor receptor 2/Corticotropin-releasing factor-binding protein (Homo sapiens, UniProt P24387+Q13324); assay: Dose Response confirmation of uHTS hits for small molecule antagonists of the CRF-binding protein and CRF-R2 receptor complex.; type: functional; conditions: read-out: IC50_Mean
T6 sequence (Q13324 whole entry): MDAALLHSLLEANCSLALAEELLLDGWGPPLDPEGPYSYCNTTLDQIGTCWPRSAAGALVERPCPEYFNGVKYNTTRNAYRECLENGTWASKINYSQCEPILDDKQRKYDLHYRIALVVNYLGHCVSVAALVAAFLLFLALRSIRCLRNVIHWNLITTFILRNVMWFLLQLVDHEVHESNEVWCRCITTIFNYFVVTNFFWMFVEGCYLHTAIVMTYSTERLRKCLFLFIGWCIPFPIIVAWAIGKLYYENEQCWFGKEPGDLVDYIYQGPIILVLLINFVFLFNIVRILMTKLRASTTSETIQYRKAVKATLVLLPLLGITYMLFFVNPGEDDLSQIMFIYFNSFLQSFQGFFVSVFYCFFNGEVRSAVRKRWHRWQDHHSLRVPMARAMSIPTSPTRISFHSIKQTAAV
T6 sequence (P24387 whole entry): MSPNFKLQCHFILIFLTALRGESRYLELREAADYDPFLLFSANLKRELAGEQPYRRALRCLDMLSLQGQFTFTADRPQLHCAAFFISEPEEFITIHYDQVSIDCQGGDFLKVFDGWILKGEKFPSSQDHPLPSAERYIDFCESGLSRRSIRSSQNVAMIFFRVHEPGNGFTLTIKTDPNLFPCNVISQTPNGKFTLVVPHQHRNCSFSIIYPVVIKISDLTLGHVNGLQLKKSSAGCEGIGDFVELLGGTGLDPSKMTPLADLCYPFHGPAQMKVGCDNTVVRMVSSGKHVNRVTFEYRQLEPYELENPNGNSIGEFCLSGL

[9] = biological target: T6, Corticotropin-releasing factor receptor 2/Corticotropin-releasing factor-binding protein; assay: activators of CRF receptor 2 with binding protein – uHTS hits, confirmation (AID 602473); type: functional; conditions: read-out: EC50_Mean
[10] = blockers of HIV-1 envelope-mediated cell-cell fusion – cherry-pick, dose response (AID 652057); type: functional, cell-based
[11] = off-target signal loss in HeLa-CEM21 co-culture – HeLa F-luc CTL cells, cherry-picked, counter-screen for HIV-1 Env fusion inhibitor project, dose response (AID 652040); type: functional, cell-based;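 also: potency for signal decrease marking cytotoxic or nonspecific inhibition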
[12] = HIV-1 AD8 envelope cell-cell fusion blockers – cherry-pick, dose response (AID 652062); type: functional, cell-based;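 also: luciferase signal from cell-cell fusion driven by HIV-1 clade B AD8 Env; potency is for inhibitors of fusion seen as a drop in luminescence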

O=C(CN=C(S)N(Cc1ccccc1)Cc1ccccc1F)NCc1ccccc1
IC50 [1]: > 50 µM (not active)

O=C(COC(=O)CSc1ccc2ccccc2c1)Nc1ccccc1OC(F)F
IC50 [1]: 1.8 µM (not active)

Oc1ccc(O)c2c1C1(Cl)C(Cl)=C(Cl)C2(Cl)C1(Cl)Cl
AC50 [2]: 8.21 µM (active)
IC50 (Fatty acid synthase [3]): 15.7 µM (active)
IC50 (Fatty acid synthase [4]): 14.1 µM (active)

CCOc1cc(NCc2ccccc2)c2ncn(C(C)C)c2c1
IC50 [5]: > 80 µM (inactive)
IC50 [6]: 34.7 µM (active)

Cc1c([C@H]2[C@@H](CC#N)C2(C)C)c2ccccc2n1C
IC50 (Estrogen receptor beta): > 50 µM (not active)

C[C@@]12C(=O)N(c3cccc(Br)c3)C(=O)N1[C@H](c1ccc(Cl)cc1)[C@@H]1C(=O)N(C3CCCCC3)C(=O)[C@@H]12
IC50 (Fatty acid synthase [3]): 7.4 µM (active)
IC50 (Fatty acid synthase [4]): 5.22 µM (active)

Cc1cc(-c2ccc(N3C(=O)CCC3=O)c(C)c2)ccc1N1C(=O)CCC1=O
IC50 (Estrogen receptor beta): > 50 µM (not active)

O=[N+]([O-])c1ccc(Oc2cccc(F)c2)c2ccncc12
IC50 [1]: 3.5 µM (not active)
AC50 [7]: > 380 µM (inactive)
EC50 (Protein RecA): 0.956 µM (active)

CN1C(=O)C(N=Nc2ccc([N+](=O)[O-])cc2)SC1=S (stereo unspecified)
IC50 [5]: > 80 µM (inactive)
AC50 [2]: 14.5 µM (active)
IC50 [8]: < 0.368 µM (active)
EC50 [9]: 1.69 µM (active)

COc1cc(/C=N/n2cnnc2)ccc1OS(=O)(=O)c1ccccc1[N+](=O)[O-]
IC50 [1]: 15.5 µM (not active)

O=C(Nc1ccc(Br)cc1)c1cccc(-n2cnnn2)c1
IC50 (Fatty acid synthase [3]): 32.9 µM (inactive)
IC50 (Fatty acid synthase [4]): 24.8 µM (inactive)

CSc1ccc(CN2C(=O)C(F)(F)Oc3c(C(C)=O)cccc32)cc1
IC50 (Fatty acid synthase [3]): 9.19 µM (active)
IC50 (Fatty acid synthase [4]): 9.77 µM (active)

Cc1ccc(C)c(NC(=O)Cc2nc(CCl)cs2)c1
IC50 [1]: 1.04 µM (not active)

COc1cccc(-n2nc(-c3ccnn3-c3ccc(F)cc3)c(=O)n(C)c2=O)c1
IC50 (Estrogen receptor beta): > 50 µM (not active)

CCN(CC)S(=O)(=O)c1cccc(S(=O)(=O)c2cccc(S(=O)(=O)N(CC)CC)c2)c1
AC50 [10]: 20.8 µM (active)
AC50 [11]: 43.7 µM (active)
AC50 [12]: 18.3 µM (active)

COc1ccc(C(=O)N2CCN(CCc3ccccc3)CC2)cc1[N+](=O)[O-]
IC50 (Fatty acid synthase [3]): 0.786 µM (active)
IC50 (Fatty acid synthase [4]): 0.525 µM (active)

CCOc1ccccc1N1CCN(C(=O)C2c3ccccc3Oc3ccccc32)CC1
IC50 [6]: 29.3 µM (active)
